Source: patent US20240300932A1, “N-PHENYLIMINE DERIVATIVE AND PREPARATION METHOD AND USE THEREOF” (Guizhou University, priority 2023, published 2024)

Experiments:
Test in all cases: Post-emergence herbicidal activity test (stem and leaf spray, pot culture)
Type in all cases: in vivo
Conditions in all cases: 3 weeks after spraying
Trifoliumre pensL. = tested on: Trifoliumre pensL.
How it was run: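 Rates of 10, 5 and 2.5 g/mu were applied in a single spray-tower treatment to 2–3-leaf plants, thinned to 10 per pot. Formulation: acetone solution, Tween 80, 1.5 L/ha methyl oleate synergist. Weed response assessed after 3 further greenhouse weeks; mean of three experiments.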

Abutilon theophrasti = tested on: Abutilon theophrasti
How it was run: (§1)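 Foliar spray, 2–3-leaf stage, 10/5/2.5 g/mu; acetone/Tween 80 + methyl oleate 1.5 L/ha. Greenhouse 3 wk, 20–30 °C. Score: fresh-wt control, grade 5 ≥85% … grade 0 <5%.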

Amaranthus retroflexus = tested on: Amaranthus retroflexus
How it was run: as §1

Setaria viridis = tested on: Setaria viridis
How it was run: as §1

Portulaca oleracea = tested on: Portulaca oleracea
How it was run: as §1

Echinochloa crusgalli = tested on: Echinochloa crusgalli
How it was run: as §1

| Structure (SMILES) | Post-emergence herbicidal activity, Trifoliumre pensL. (grade) (Trifoliumre pensL.; dosage 2.5 g/mu) | Post-emergence herbicidal activity, Trifoliumre pensL. (grade) (Trifoliumre pensL.; dosage 5 g/mu) | Post-emergence herbicidal activity, Trifoliumre pensL. (grade) (Trifoliumre pensL.; dosage 10 g/mu) | Post-emergence herbicidal activity, A. theophrasti (grade) (Abutilon theophrasti; dosage 2.5 g/mu) | Post-emergence herbicidal activity, A. theophrasti (grade) (Abutilon theophrasti; dosage 5 g/mu) | Post-emergence herbicidal activity, A. theophrasti (grade) (Abutilon theophrasti; dosage 10 g/mu) | Post-emergence herbicidal activity, A. retroflexus (grade) (Amaranthus retroflexus; dosage 2.5 g/mu) | Post-emergence herbicidal activity, A. retroflexus (grade) (Amaranthus retroflexus; dosage 5 g/mu) | Post-emergence herbicidal activity, A. retroflexus (grade) (Amaranthus retroflexus; dosage 10 g/mu) | Post-emergence herbicidal activity, S. viridis (grade) (Setaria viridis; dosage 2.5 g/mu) | Post-emergence herbicidal activity, S. viridis (grade) (Setaria viridis; dosage 5 g/mu) | Post-emergence herbicidal activity, S. viridis (grade) (Setaria viridis; dosage 10 g/mu) | Post-emergence herbicidal activity, P. oleracea (grade) (Portulaca oleracea; dosage 2.5 g/mu) | Post-emergence herbicidal activity, P. oleracea (grade) (Portulaca oleracea; dosage 5 g/mu) | Post-emergence herbicidal activity, P. oleracea (grade) (Portulaca oleracea; dosage 10 g/mu) | Post-emergence herbicidal activity, E. crusgalli (grade) (Echinochloa crusgalli; dosage 2.5 g/mu) | Post-emergence herbicidal activity, E. crusgalli (grade) (Echinochloa crusgalli; dosage 5 g/mu) | Post-emergence herbicidal activity, E. crusgalli (grade) (Echinochloa crusgalli; dosage 10 g/mu) |
| --- | --- | --- | --- | --- | --- | --- | --- | --- | --- | --- | --- | --- | --- | --- | --- | --- | --- | --- |
| O=C1C2=C(CCCC2)C(=O)N1c1cc(OCc2nnc(-c3cccc([N+](=O)[O-])c3)o2)c(Cl)cc1F [Compound B12] | 5 (Grade 5: the growth control rate is greater than or equal to 85%) | 5 (Grade 5: the growth control rate is greater than or equal to 85%) | 5 (Grade 5: the growth control rate is greater than or equal to 85%) | 5 (Grade 5: the growth control rate is greater than or equal to 85%) | 5 (Grade 5: the growth control rate is greater than or equal to 85%) | 5 (Grade 5: the growth control rate is greater than or equal to 85%) | 5 (Grade 5: the growth control rate is greater than or equal to 85%) | 5 (Grade 5: the growth control rate is greater than or equal to 85%) | 5 (Grade 5: the growth control rate is greater than or equal to 85%) | 2 (Grade 2: the growth control rate is greater than or equal to 20% and less than 40%) | 3 (Grade 3: the growth control rate is greater than or equal to 40% and less than 60%) | 4 (Grade 4: the growth control rate is greater than or equal to 60% and less than 85%) | 5 (Grade 5: the growth control rate is greater than or equal to 85%) | 5 (Grade 5: the growth control rate is greater than or equal to 85%) | 5 (Grade 5: the growth control rate is greater than or equal to 85%) | 1 (Grade 1: the growth control rate is greater than or equal to 5% and less than 20%) | 2 (Grade 2: the growth control rate is greater than or equal to 20% and less than 40%) | 3 (Grade 3: the growth control rate is greater than or equal to 40% and less than 60%) |
| O=C1C2=C(CCCC2)C(=O)N1c1cc(OCc2nnc(-c3ccc([N+](=O)[O-])cc3)o2)c(Cl)cc1F [Compound B18] | 5 (Grade 5: the growth control rate is greater than or equal to 85%) | 5 (Grade 5: the growth control rate is greater than or equal to 85%) | 5 (Grade 5: the growth control rate is greater than or equal to 85%) | 4 (Grade 4: the growth control rate is greater than or equal to 60% and less than 85%) | 5 (Grade 5: the growth control rate is greater than or equal to 85%) | 5 (Grade 5: the growth control rate is greater than or equal to 85%) | 5 (Grade 5: the growth control rate is greater than or equal to 85%) | 5 (Grade 5: the growth control rate is greater than or equal to 85%) | 5 (Grade 5: the growth control rate is greater than or equal to 85%) | 2 (Grade 2: the growth control rate is greater than or equal to 20% and less than 40%) | 3 (Grade 3: the growth control rate is greater than or equal to 40% and less than 60%) | 4 (Grade 4: the growth control rate is greater than or equal to 60% and less than 85%) | 4 (Grade 4: the growth control rate is greater than or equal to 60% and less than 85%) | 5 (Grade 5: the growth control rate is greater than or equal to 85%) | 5 (Grade 5: the growth control rate is greater than or equal to 85%) | 1 (Grade 1: the growth control rate is greater than or equal to 5% and less than 20%) | 2 (Grade 2: the growth control rate is greater than or equal to 20% and less than 40%) | 3 (Grade 3: the growth control rate is greater than or equal to 40% and less than 60%) |
| O=C1C2=C(CCCC2)C(=O)N1c1cc(OCc2nnc(-c3ccc([N+](=O)[O-])cc3F)o2)c(Cl)cc1F [Compound B20] | 4 (Grade 4: the growth control rate is greater than or equal to 60% and less than 85%) | 5 (Grade 5: the growth control rate is greater than or equal to 85%) | 5 (Grade 5: the growth control rate is greater than or equal to 85%) | 5 (Grade 5: the growth control rate is greater than or equal to 85%) | 5 (Grade 5: the growth control rate is greater than or equal to 85%) | 5 (Grade 5: the growth control rate is greater than or equal to 85%) | 4 (Grade 4: the growth control rate is greater than or equal to 60% and less than 85%) | 5 (Grade 5: the growth control rate is greater than or equal to 85%) | 5 (Grade 5: the growth control rate is greater than or equal to 85%) | 2 (Grade 2: the growth control rate is greater than or equal to 20% and less than 40%) | 3 (Grade 3: the growth control rate is greater than or equal to 40% and less than 60%) | 4 (Grade 4: the growth control rate is greater than or equal to 60% and less than 85%) | 5 (Grade 5: the growth control rate is greater than or equal to 85%) | 5 (Grade 5: the growth control rate is greater than or equal to 85%) | 5 (Grade 5: the growth control rate is greater than or equal to 85%) | 1 (Grade 1: the growth control rate is greater than or equal to 5% and less than 20%) | 2 (Grade 2: the growth control rate is greater than or equal to 20% and less than 40%) | 3 (Grade 3: the growth control rate is greater than or equal to 40% and less than 60%) |
